Data as given in patent US8871772B2, “Therapeutic methods and compounds” (Ampio Pharmaceuticals, Inc., priority 2008, dated 2014).

Tests used:
Format in all cases: cell-based
[1] = tested on: U-118 metastatic astrocytoma cell line; test: Proliferation of U-118 cancer cells, Promega cell titer assay
Protocol: Assays were performed to determine the effect of Cpd. 5 on proliferation of an additional cancer cell line. This cell line was the U-118 metastatic astrocytoma cell line. It was obtained from ATCC.
To perform the assays, a 50 mM stock solution of Cpd. 5 was prepared in DMSO and frozen at −80° C. […] Controls containing equivalent amounts of DMSO to the 300 μM solution were mixed for comparative purposes. 100 μl of the resulting solutions were then added to 96 well culture plates in triplicate and placed in a 37° C. incubator with 5% CO2 to warm.
Cells were removed from passage flasks using trypsin and ethylenediaminetetracetic acid (EDTA) and counted using trypan blue to establish cell counts/ml and viability. For all experiments, viability of cells was greater than 95%. Solutions of 4,000 cells/100 μl were prepared in the medium from above, and 100 μl of the solutions were added to each well of the plates. The plates were placed back in the incubator and incubated with the compounds for 96 hours.
Following incubation, cell proliferation was assayed by adding 20 μl Promega cell titer aqueous one reagent to each well. Promega cell titer reagent is a solution containing a tetrazolium dye that is reduced by living cells to a formazan dye, and this reduction is proportional to the number of living cells present in the well. The plates were incubated at 37° C. for an additional 4 hours to allow the colorimetric assay to develop, and the OD of each well was determined in a microplate reader using a 530 nm filter. The OD of wells containing cell titer reagent in culture medium with no cells was subtracted from the OD of all experimental readings.
The % decrease of the total cell titer signal was determined using the following formula. ((Diluent OD−Experimental OD)/Diluent OD))×100. Data are presented in Table 5 as mean % decrease of cell titer signal of three separate experiments, plus or minus standard deviation. In the mean % decrease column, a positive number means a decrease in cell titer signal, while a negative number means an increase in cell titer signal. The p values were calculated versus diluent controls.
The above experiment was repeated using the U-118 cells at 3000 cells/well.

[2] = tested on: STTG grade 4 astrocytoma cell line; test: Proliferation of STTG cancer cells, Promega cell titer assay; settings: 96 hours, negative number = increase
Protocol: Assays were performed to determine the effect of Cpd. 5 (synthesis described in Example 1) on proliferation of two cancer cell lines. These two cell lines were STTG grade 4 astrocytoma cell line and AU565 breast cancer cell line. Both cell lines were obtained from American Type Culture Collection, Rockville, Md. (ATCC).
To perform the assays, a 50 mM stock solution of Cpd. 5 was prepared in DMSO and frozen at −80° C. Aliquots of the stock solution were removed and 100 μM dilutions were made in Iscove's modified Dulbecco's medium (IMDM; obtained from ATCC) supplemented with 10% fetal bovine serum (FBS) and penicillin/streptomycin solution. Controls containing equivalent amounts of DMSO to the 100 μM solution were mixed for comparative purposes. 100 μl of the resulting solutions were then added to 96 well culture plates in triplicate and placed in a 37° C. incubator with 5% CO2 to warm.
At this point, cells were removed from passage flasks using trypsin and counted using trypan blue to establish cell counts/ml and viability. For all experiments, viability of cells was greater than 95%. Solutions of 4,000 cells/100 μl were prepared in the medium from above and 100 μl of the solutions were added to each well of the plates. The plates were placed back in the incubator and incubated with the compounds for 96 hours.
Following incubation, cell proliferation was assayed by adding 20 μl Promega cell titer aqueous one reagent to each well. […] The plates were incubated at 37° C. for an additional 4-18 hours to allow the colorimetric assay to develop, and the OD of each well was determined in a microplate reader using a 530 nm filter. The OD of wells containing cell titer reagent in culture medium with no cells was subtracted from the OD of all experimental readings.
The % decrease of the total cell titer signal was determined using the following formula. […] The p values were calculated versus diluent controls.

[3] = tested on: WM-266-4 cells; test: Proliferation of WM-266-4 cells (separate experiment); settings: concentration not given
Description: As shown there, Cpd. […] It should also be noted that, in a separate experiment, Cpd.

SMILES	MEAN % DECREASE of cell titer signal ([1]; U-118, 3000 cells/well, 25 μM final) [%]	MEAN % DECREASE of cell titer signal ([1]; U-118, 3000 cells/well, 37.5 μM final) [%]	MEAN % DECREASE of cell titer signal ([1]; U-118, 3000 cells/well, 50 μM final) [%]	MEAN % DECREASE of cell titer signal ([1]; U-118, 3000 cells/well, 75 μM final) [%]	MEAN % DECREASE of cell titer signal ([1]; U-118, 3000 cells/well, 100 μM final) [%]	MEAN % DECREASE of cell titer signal ([1]; U-118, 3000 cells/well, 150 μM final) [%]	MEAN % DECREASE of cell titer signal ([1]; U-118, 4,000 cells/well, 25 μM final, 96 hours) [%]	MEAN % DECREASE of cell titer signal ([1]; U-118, 4,000 cells/well, 37.5 μM final, 96 hours) [%]	MEAN % DECREASE of cell titer signal ([1]; U-118, 4,000 cells/well, 50 μM final, 96 hours) [%]	MEAN % DECREASE of cell titer signal ([1]; U-118, 4,000 cells/well, 75 μM final, 96 hours) [%]	MEAN % DECREASE of cell titer signal ([1]; U-118, 4,000 cells/well, 100 μM final, 96 hours) [%]	MEAN % DECREASE of cell titer signal ([1]; U-118, 4,000 cells/well, 150 μM final, 96 hours) [%]	MEAN % DECREASE of cell titer signal ([2]; 50 μM) [%]	inhibition of the proliferation of WM-266-4 cells [3]	MEAN % DECREASE of cell titer signal ([1]; U-118, 3000 cells/well, 40 μM final) [%]	MEAN % DECREASE of cell titer signal ([1]; U-118, 4,000 cells/well, 20 μM final, 96 hours) [%]	MEAN % DECREASE of cell titer signal ([2]; 20 μM) [%]
COC(=O)C(c1ccc(-c2ccccc2)cc1)C1NC(=O)CNC1=O (stereo not drawn) [Cpd. 5, biphenyl-4-yl-(3,6-dioxo-piperazin-2-yl)-acetic acid methyl ester]	−25.28	−25.28	−15.63	−3.05	20.51	59.70	−50.62	−46.50	−7.82	4.11	25.93	65.84	78.74	did not inhibit	–	–	–
O=c1cc(N2CCOCC2)oc2c(-c3ccccc3)cccc12 [LY294002, reference compound]	–	–	–	–	–	–	–	–	–	–	–	–	–	105%	86.04	19.75	−46.72
